According to patent US9169254B2, “Spiroimidazolone derivative” (Chugai Seiyaku Kabushiki Kaisha, priority 2009, dated 2015):

These compounds were tested against T1, human PTH1 receptor (Homo sapiens, UniProt Q03431) (assay: In vitro cAMP signal activity in HKRK-B7 cells (LLC-PK1 cells overexpressing the human PTH1 receptor)). Details: 0.1 µM.
T1 sequence (Q03431 27-593): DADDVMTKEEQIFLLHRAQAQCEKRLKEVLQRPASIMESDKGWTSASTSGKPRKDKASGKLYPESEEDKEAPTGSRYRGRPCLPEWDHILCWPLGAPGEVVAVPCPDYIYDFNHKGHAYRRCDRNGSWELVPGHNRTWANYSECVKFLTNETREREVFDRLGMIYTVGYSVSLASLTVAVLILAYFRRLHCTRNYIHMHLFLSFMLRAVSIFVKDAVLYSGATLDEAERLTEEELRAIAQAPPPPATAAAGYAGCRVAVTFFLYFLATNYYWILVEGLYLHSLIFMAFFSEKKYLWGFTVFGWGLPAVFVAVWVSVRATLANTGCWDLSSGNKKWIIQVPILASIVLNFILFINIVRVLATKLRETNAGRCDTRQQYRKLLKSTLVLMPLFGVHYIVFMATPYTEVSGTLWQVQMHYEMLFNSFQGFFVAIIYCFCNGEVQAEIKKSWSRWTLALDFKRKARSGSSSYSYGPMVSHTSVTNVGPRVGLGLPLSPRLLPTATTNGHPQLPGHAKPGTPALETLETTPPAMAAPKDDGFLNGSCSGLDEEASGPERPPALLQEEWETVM
Type: cell-based

SMILES	cAMP production activity (%)
Cc1cc(C(=O)N(C)C)ccc1CCS(=O)(=O)N1CCC2(CC1)N=C(Nc1ccc(C(F)(F)F)cc1)NC2=O [Compound 1396, 3,N,N-Trimethyl-4-{2-[4-oxo-2-(4-trifluoromethyl-phenylamino)-1,3,8-triaza-spiro[4.5]dec-1-ene-8-sulfonyl]-ethyl}-benzamide]	133%

Same assay, conditions: HKRK-B7 cells; compound at 1×10^−3 M; cAMP produced as percentage of that produced by hPTH(1-34) at 100 nM

SMILES	cAMP production activity (%)
Cc1cc(C(=O)N2CCC(O)(CF)CC2)cc(C)c1CCS(=O)(=O)N1CCC2(CC1)N=C(C1CCC(C)CC1)NC2=O (stereo not shown) [Compound 1383, 8-{2-[4-(4-fluoromethyl-4-hydroxy-piperidine-1-carbonyl)-2,6-dimethyl-phenyl]-ethanesulfonyl}-2-(4-methyl-cyclohexyl)-1,3,8-triaza-spiro[4.5]dec-1-en-4-one]	96%
Cc1cc(C(=O)N2CCC(OC[C@H](O)CO)CC2)cc(C)c1CCS(=O)(=O)N1CCC2(CC1)N=C(C1CCC(CCC(F)(F)F)CC1)NC2=O (stereo partly drawn) [Compound 1384, 8-(2-{4-[4-((R)-2,3-dihydroxy-propoxy)-piperidine-1-carbonyl]-2,6-dimethyl-phenyl}-ethanesulfonyl)-2-[4-(3,3,3-trifluoro-propyl)-cyclohexyl]-1,3,8-triaza-spiro[4.5]dec-1-en-4-one]	78%
Cc1cc(C(=O)NN)cc(C)c1CCS(=O)(=O)N1CCC2(CC1)N=C(C1CCC(CCC(F)(F)F)CC1)NC2=O (stereo not shown) [Compound 1385, 3,5-dimethyl-4-(2-{4-oxo-2-[4-(3,3,3-trifluoro-propyl)-cyclohexyl]-1,3,8-triaza-spiro[4.5]dec-1-ene-8-sulfonyl}-ethyl)-benzoic acid hydrazide]	92%
Cc1cc(C(=O)N2CCCN2)cc(C)c1CCS(=O)(=O)N1CCC2(CC1)N=C(C1CCC(CCC(F)(F)F)CC1)NC2=O (stereo not shown) [Compound 1386, 8-{2-[2,6-dimethyl-4-(pyrazolidine-1-carbonyl)-phenyl]-ethanesulfonyl}-2-[4-(3,3,3-trifluoro-propyl)-cyclohexyl]-1,3,8-triaza-spiro[4.5]dec-1-en-4-one]	92%
Cc1cc(CC(=O)N(C)C)ccc1CCS(=O)(=O)N1CCC2(CC1)N=C(C1CCC(C)CC1)NC2=O (stereo not shown) [Compound 1387, N,N-dimethyl-2-(3-methyl-4-{2-[2-(4-methyl-cyclohexyl)-4-oxo-1,3,8-triaza-spiro[4.5]dec-1-ene-8-sulfonyl]-ethyl}-phenyl)-acetamide]	68%
CONC(=O)Cc1ccc(CCS(=O)(=O)N2CCC3(CC2)N=C(C2CCC(C)CC2)NC3=O)c(C)c1 (stereo not shown) [Compound 1388, N-methoxy-2-(3-methyl-4-{2-[2-(4-methyl-cyclohexyl)-4-oxo-1,3,8-triaza-spiro[4.5]dec-1-ene-8-sulfonyl]-ethyl}-phenyl)-acetamide]	59%
Cc1cc(CN(C)C(N)=O)cc(C)c1CCS(=O)(=O)N1CCC2(CC1)N=C(C1CCC(CCC(F)(F)F)CC1)NC2=O (stereo not shown) [Compound 1389, 1-[3,5-dimethyl-4-(2-{4-oxo-2-[4-(3,3,3-trifluoro-propyl)-cyclohexyl]-1,3,8-triaza-spiro[4.5]dec-1-ene-8-sulfonyl}-ethyl)-benzyl]-1-methyl-urea]	67%
Cc1cc(CN(C)C(N)=O)cc(C)c1CCS(=O)(=O)N1CCC2(CC1)N=C(C1CCC(C)CC1)NC2=O (stereo not shown) [Compound 1390, 1-(3,5-dimethyl-4-{2-[2-(4-methyl-cyclohexyl)-4-oxo-1,3,8-triaza-spiro[4.5]dec-1-ene-8-sulfonyl]-ethyl}-benzyl)-1-methyl-urea]	69%
[2H]C([2H])([2H])N(C(N)=O)c1cc(C)c(CCS(=O)(=O)N2CCC3(CC2)N=C(c2ccc(F)c(C(F)(F)F)c2)NC3=O)c(C)c1 [Compound 1391, 1-(4-{2-[2-(4-fluoro-3-trifluoromethyl-phenyl)-4-oxo-1,3,8-triaza-spiro[4.5]dec-1-ene-8-sulfonyl]-ethyl}-3,5-dimethyl-phenyl)-1-[1,1,1-^2H3]methyl-urea]	116%
O=C1NC(C2CCCCC2)=NC12CCN(S(=O)(=O)CCc1cccc3c1ccn3C[C@H](O)[C@@H](O)CO)CC2 [Compound 1392, 2-Cyclohexyl-8-{2-[1-((2S,3S)-2,3,4-trihydroxy-butyl)-1H-indol-4-yl]-ethanesulfonyl}-1,3,8-triaza-spiro[4.5]dec-1-en-4-one]	89%
O=C1NC(C2CCCCC2)=NC12CCN(S(=O)(=O)CCc1cccc3c1ccn3C[C@H](O)[C@@H](O)COCc1ccccc1)CC2 [Compound 1393, 8-{2-[1-((2S,3S)-4-benzyloxy-2,3-dihydroxy-butyl)-1H-indol-4-yl]-ethanesulfonyl}-2-cyclohexyl-1,3,8-triaza-spiro[4.5]dec-1-en-4-one]	84%
CC(=O)NCc1ccc(CCS(=O)(=O)N2CCC3(CC2)N=C(C2CCC(CCC(F)(F)F)CC2)NC3=O)c(C)c1 (stereo not shown) [Compound 1394, N-[3-Methyl-4-(2-{4-oxo-2-[4-(3,3,3-trifluoro-propyl)-cyclohexyl]-1,3,8-triaza-spiro[4.5]dec-1-ene-8-sulfonyl}-ethyl)-benzyl]-acetamide]	82%
Cc1cc(C(=O)N(C)C)ccc1CCS(=O)(=O)N1CCC2(CC1)N=C(Nc1cccc(C(F)(F)F)c1)NC2=O [Compound 1395, 3,N,N-Trimethyl-4-{2-[4-oxo-2-(3-trifluoromethyl-phenylamino)-1,3,8-triaza-spiro[4.5]dec-1-ene-8-sulfonyl]-ethyl}-benzamide]	68%
Cc1cc(C(=O)N(C)C)ccc1CCS(=O)(=O)N1CCC2(CC1)N=C(N(C)c1ccccc1)NC2=O [Compound 1397, 3,N,N-trimethyl-4-{2-[2-(methyl-phenyl-amino)-4-oxo-1,3,8-triaza-spiro[4.5]dec-1-ene-8-sulfonyl]-ethyl}-benzamide]	24%
Cc1cc(C(=O)N(C)C)ccc1CCS(=O)(=O)N1CCC2(CC1)N=C(N(C)Cc1ccccc1)NC2=O [Compound 1398, 4-{2-[2-(benzyl-methyl-amino)-4-oxo-1,3,8-triaza-spiro[4.5]dec-1-ene-8-sulfonyl]-ethyl}-3,N,N-trimethyl-benzamide]	77%
Cc1cc(C(=O)N(C)C)ccc1CCS(=O)(=O)N1CCC2(CC1)N=C(NCC1CCCCC1)NC2=O [Compound 1399, 4-{2-[2-(cyclohexylmethyl-amino)-4-oxo-1,3,8-triaza-spiro[4.5]dec-1-ene-8-sulfonyl]-ethyl}-3,N,N-trimethyl-benzamide]	20%
Cc1cc(C(=O)N(C)C)ccc1CCS(=O)(=O)N1CCC2(CC1)N=C(N(C)c1ccc(C(F)(F)F)cc1)NC2=O [Compound 1400, 3,N,N-trimethyl-4-(2-{2-[methyl-(4-trifluoromethyl-phenyl)-amino]-4-oxo-1,3,8-triaza-spiro[4.5]dec-1-ene-8-sulfonyl}-ethyl)-benzamide]	49%
CC(=O)Nc1ccc(CCS(=O)(=O)N2CCC3(CC2)N=C(Nc2ccc(C(F)(F)F)cc2)NC3=O)c(C)c1 [Compound 1401, N-(3-Methyl-4-{2-[4-oxo-2-(4-trifluoromethyl-phenylamino)-1,3,8-triaza-spiro[4.5]dec-1-ene-8-sulfonyl]-ethyl}-phenyl)-acetamide]	73%
